PubChem BioAssay (NCI)
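Test compounds were applied to cells in 96-well plates for 48 hours at 5 doses. GI50 marks 50% less growth. At the TGI there is no net growth.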

Columns and labels:
Assay in all cases: NCI anticancer screen, dose series, 48 h
[1] = system: KM12 colon
[2] = system: NCI-H522 lung
[3] = system: MDA-MB-435
[4] = system: EKVX NSCLC
[5] = system: HCT-116 colon
[6] = system: RPMI-8226 leukemia
[7] = system: SNB-19 CNS
[8] = system: PC-3 prostate
[9] = system: RXF 393 renal
[10] = system: LOX IMVI melanoma
[11] = system: CAKI-1 renal
[12] = system: UO-31 renal
[13] = system: SK-MEL-28 melanoma
[14] = system: SR leukemia
[15] = system: SF-268 CNS
[16] = system: NCI/ADR-RES ovarian
[17] = system: SNB-75 CNS
[18] = system: ACHN renal
[19] = system: SK-MEL-5 melanoma
[20] = system: OVCAR-8 ovarian
[21] = system: K-562 leukemia
[22] = system: UACC-62 melanoma
[23] = system: HCT-15 colon
[24] = system: SF-295 CNS
[25] = system: 786-0 renal
[26] = system: NCI-H460 lung
[27] = system: OVCAR-3 ovarian
[28] = system: SK-OV-3 ovarian
[29] = system: MOLT-4 leukemia
[30] = system: HL-60(TB) leukemia
[31] = system: A498 renal
[32] = system: SK-MEL-2 melanoma
[33] = system: SN12C renal
[34] = system: SF-539 CNS
[35] = system: MDA-MB-231 breast
[36] = system: MCF7 breast
[37] = system: CCRF-CEM leukemia
[38] = system: IGROV1 ovarian
[39] = system: HOP-92 NSCLC
[40] = system: SW-620 colon
[41] = system: NCI-H226 lung
[42] = system: OVCAR-5 ovarian
[43] = system: OVCAR-4 ovarian
[44] = system: HS 578T breast
[45] = system: DU-145 prostate
[46] = system: HOP-62 NSCLC
[47] = system: A549 NSCLC
[48] = system: NCI-H23 lung
[49] = system: HCC-2998 colon
[50] = system: U251 CNS
[51] = system: M14 melanoma
[52] = system: BT-549 breast
[53] = system: T-47D breast

With Cc1ccc(S(=O)(=O)c2nc(-c3ccc(F)cc3)oc2S(C)(=O)=O)cc1 the GI50 [1] was > 100 µM, the TGI [1] was > 100 µM and the GI50 [2] was 2.27 µM. For the same molecule, the GI50 [3] was 13.7 µM, the TGI [3] was > 100 µM and the GI50 [4] was > 100 µM. For the same molecule, the TGI [4] was > 100 µM, the GI50 [5] was 1.53 µM and the TGI [5] was 2.94 µM. For the same molecule, the GI50 [6] was > 100 µM, the TGI [6] was > 100 µM and the GI50 [7] was > 77.6 µM. For the same molecule, the TGI [7] was > 100 µM, the GI50 [8] was > 21.9 µM and the TGI [8] was > 100 µM. For the same molecule, the GI50 [9] was 5.16 µM, the TGI [9] was > 100 µM and the GI50 [10] was 2.04 µM. For the same molecule, the GI50 [11] was 4.83 µM, the TGI [11] was > 100 µM and the GI50 [12] was > 100 µM. For the same molecule, the TGI [12] was > 100 µM, the GI50 [13] was > 100 µM and the TGI [13] was > 100 µM. The GI50 [14] was 1.06 µM, the GI50 [15] was > 35 µM and the TGI [15] was > 100 µM. For the same molecule, the GI50 [16] was > 31.8 µM, the TGI [16] was > 100 µM and the GI50 [17] was > 23.5 µM. The TGI [17] was > 100 µM, the GI50 [18] was 1.74 µM and the TGI [18] was 3.13 µM. The GI50 [19] was > 100 µM, the TGI [19] was > 100 µM and the GI50 [20] was 6.88 µM. The TGI [20] was > 100 µM, the GI50 [21] was 2.94 µM and the TGI [21] was > 100 µM. For the same molecule, the TGI [22] was > 100 µM, the GI50 [23] was 3.95 µM and the TGI [23] was > 100 µM. The GI50 [24] was > 100 µM, the TGI [24] was > 100 µM and the GI50 [25] was > 100 µM. The TGI [25] was > 100 µM, the GI50 [26] was > 100 µM and the TGI [26] was > 100 µM. The GI50 [27] was > 100 µM, the TGI [27] was > 100 µM and the GI50 [28] was > 93.5 µM. The TGI [28] was > 100 µM, the GI50 [29] was 4.61 µM and the TGI [29] was > 100 µM. For the same molecule, the GI50 [30] was 1.65 µM, the TGI [30] was 5.57 µM and the GI50 [31] was > 100 µM. For the same molecule, the TGI [31] was > 100 µM, the GI50 [32] was > 21 µM and the TGI [32] was > 100 µM. For the same molecule, the GI50 [33] was 8.51 µM, the TGI [33] was > 100 µM and the GI50 [34] was > 100 µM. For the same molecule, the TGI [34] was > 100 µM, the GI50 [35] was > 100 µM and the TGI [35] was > 100 µM. The GI50 [36] was 3.78 µM, the TGI [36] was > 100 µM and the GI50 [37] was 2.92 µM. The TGI [37] was > 100 µM, the GI50 [38] was > 100 µM and the TGI [38] was > 100 µM. The GI50 [39] was 6.69 µM, the TGI [39] was > 100 µM and the GI50 [40] was 2.4 µM. For the same molecule, the GI50 [41] was > 20.2 µM, the TGI [41] was > 100 µM and the GI50 [42] was > 100 µM. The TGI [42] was > 100 µM, the GI50 [43] was > 100 µM and the TGI [43] was > 100 µM. For the same molecule, the TGI [44] was > 52.9 µM, the GI50 [45] was > 100 µM and the TGI [45] was > 100 µM. The GI50 [46] was > 100 µM, the TGI [46] was > 100 µM and the GI50 [47] was > 100 µM. The TGI [47] was > 100 µM, the GI50 [48] was 3.13 µM and the TGI [48] was > 100 µM. The GI50 [49] was > 100 µM, the TGI [49] was > 100 µM and the GI50 [50] was 16.9 µM. For the same molecule, the TGI [50] was > 100 µM, the GI50 [51] was > 100 µM and the TGI [51] was > 100 µM. For the same molecule, the GI50 [52] was 14.1 µM, the TGI [52] was > 100 µM and the GI50 [53] was 1.73 µM. For the same molecule, the TGI [53] was 3.67 µM.
